US10329324B2 (viDA Therapeutics Inc., priority 2013, dated 2019)
Read-outs that look alike come from different tables or passages of the source.

Target: T1, human Granzyme B (hGzmB) (Homo sapiens, UniProt P10144)
T1 construct: purchased Froelich Lab, Northshore University Health Systems Research Institute, Evanston, Ill., USA
Experiment: Human Granzyme B enzymatic inhibition assay (fluorogenic, kinetic)
Assay type: biochemical
Method: A specific 2× assay buffer was prepared for the enzyme to be tested (see Table 2 for final 1× assay buffer compositions). If the assay buffer included DTT, it was added immediately prior to running the assay. A 2× enzyme mix was prepared (see Table 3 for enzyme assay conditions) at 80 uL per well. Compounds were screened at one or two appropriate concentrations (to determine the percent inhibition at those concentrations) and/or a full dose response curve (typically 8 points, to identify the IC50) in duplicate, triplicate, or higher replicates as needed. An appropriate control was also assessed in full dose response, in duplicate for each assay/plate. Background control wells consisted of 1× assay buffer, DMSO (5% v/v) and substrate. Positive control wells consisted of enzyme, DMSO (5% v/v) and substrate. Test compounds and control compounds were diluted in DMSO to […] the final desired concentration. For example, a test compound may be tested in dose response, in serial, tripling dilution condition starting at 20 uM and ending at 9.1 nM (or any appropriate concentration range and dilution scheme). Control compounds were prepared similarly. Diluted compounds were prepared in a dilution plate and transferred to the reaction plate (96-well medium binding plate (Greiner Bio-One FLUOTRAC™)) to allow for the desired final concentrations when added to the enzyme with AB. After mixing, the reaction plate was placed on a shaker (at 300 RPM) for 5 min, followed by incubation (covered) on the bench, for 20 min. Plates were warmed to reaction temperature (see Table 3) for a total incubation time of 30 min. Plates so prepared were ready for addition of substrate and the subsequent reaction.
(§1) An appropriate substrate for each assay was prepared in advance at 2× the final desired concentration (see Table 2) in DMSO. The appropriate substrate mix was added to each appropriate well on the reaction plate, and the plate was read immediately in the TECAN plate reader (TECAN INFINITE® M1000 Pro), set to the correct wavelength as needed for each assay (see Table 3) using 25 cycles, kinetic interval of 1 min, number of reads per well of 20 with shaking set to 1 s, double orbital, 2 mm amplitude. For fluorescent assays the gain was set to optimal (50%).
An in vitro fluorogenic detection assay for assessing the IC50 and/or percent inhibition at a given concentration of inhibitors against human Granzyme B (hGzmB) enzyme was performed as described in Example D1. When appropriate, percent inhibition data was collected and fitted to generate IC50 data using GraphPad Prism 5 (GraphPad Software, La Jolla Calif. USA, www.graphpad.com) and its non-linear regression analysis tools or other equivalent tools. […]
as §1, with “5)” for “2)”, “assay buffer. 30 uL of the” for “DMSO. The”, “6)” for “3)”, “15” for “25”, “(100% with gain regulation) for all assays except human GzmB which was set to 85 (with the z set at 23000 um).” for “(50%).”
An in vitro fluorogenic detection assay for assessing the IC50 and/or percent inhibition at a given concentration of inhibitors against human Granzyme B (hGzmB) enzyme was performed as described in Example D5. When appropriate, percent inhibition data was collected and fitted to generate IC50 data using GraphPad Prism 5 (GraphPad Software, La Jolla Calif. USA, www.graphpad.com) and its non-linear regression analysis tools or other equivalent tools.

[1] = activity codes, Table 7, read-out: IC50 Activity Range

T1 sequence (P10144 21-247): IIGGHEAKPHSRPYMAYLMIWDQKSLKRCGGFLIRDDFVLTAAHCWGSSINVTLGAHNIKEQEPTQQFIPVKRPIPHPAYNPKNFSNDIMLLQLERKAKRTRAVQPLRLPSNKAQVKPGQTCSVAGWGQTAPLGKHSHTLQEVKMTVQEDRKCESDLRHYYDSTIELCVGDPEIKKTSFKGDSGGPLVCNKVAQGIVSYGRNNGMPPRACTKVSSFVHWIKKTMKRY

IC50 [1]	Compound	IC50
> 10000 nM	CC[C@H](C)[C@H](NC(=O)Cc1ccccc1)C(=O)NCC(=O)N1c2ccc([N+](C)(C)C)cc2C[C@H]1C(=O)NCc1nn[nH]n1 [Example C34, (2S)—N,N,N-Trimethyl-1-{2-[(2S,3S)-3-Methyl-2-(2-Phenylacetamido)Pentanamido]Acetyl}-2-[(2H-1,2,3,4-Tetrazol-5-Ylmethyl)Carbamoyl]-2,3-Dihydro-1H-Indol-5-Aminium Iodide]	
100 to 1000 nM	CC[C@H](C)[C@H](NC(=O)Cc1ccccc1)C(=O)NCC(=O)N1c2cc(NC(=O)OC(C)(C)C)ccc2C[C@H]1C(=O)NCc1nn[nH]n1 [Example C19, Tert-Butyl N-[(2S)-1-{2-[(2S,3S)-3-Methyl-2-(2-Phenylacetamido)Pentanamido]Acetyl}-2-[(2H-1,2,3,4-Tetrazol-5-Ylmethyl)Carbamoyl]-2,3-Dihydro-1H-Indol-6-Yl]Carbamate]	
1000 to 10000 nM	CC(C)C[C@H](NC(=O)Cc1ccccc1)C(=O)NCC(=O)N1c2ccccc2C[C@H]1C(=O)NCc1nn[nH]n1 [Example C4, (2S)-1-{2-[(2S)-4-Methyl-2-(2-Phenylacetamido)Pentanamido]Acetyl}-N-(2H-1,2,3,4-Tetrazol-5-Ylmethyl)-2,3-Dihydro-1H-Indole-2-Carboxamide]	
1000 to 10000 nM	CC[C@H](C)[C@H](NC(=O)C1C[C@@H]1C(=O)O)C(=O)NCC(=O)N1c2ccccc2C[C@H]1C(=O)NCc1nn[nH]n1 (stereo partly drawn) [Example A48, (1S,2S)-2-{[(1S,2S)-2-Methy-1-({2-Oxo-2-[(2S)-2-[(2H-1,2,3,4-Tetrazol-5-Ylmethyl)Carbamoyl]-2,3-Dihydro-1H-Indol-1-Yl]Ethyl}Carbamoyl)Butyl]Carbamoyl}Cyclopropane-1-Carboxylic Acid]	
1000 to 10000 nM	CCC[C@H](NC(=O)Cc1ccccc1)C(=O)NCC(=O)N1c2ccccc2C[C@H]1C(=O)NCc1nn[nH]n1 [Example C5, (2S)-1-{2-[(2S)-2-(2-Phenylacetamido)Pentanamido]Acetyl}-N-(2H-1,2,3,4-Tetrazol-5-Ylmethyl)-2,3-Dihydro-1H-Indole-2-Carboxamide]	
100 to 1000 nM	CC[C@H](C)[C@H](NC(=O)[C@H](C)c1ccccc1)C(=O)NCC(=O)N1c2ccccc2C[C@H]1C(=O)NCc1nn[nH]n1 [Example A49, (2S)-1-{2-[(2S,3S)-3-Methyl-2-[(2R)-2-Phenylpropanamido]Pentanamido]Acetyl}-N-(2H-1,2,3,4-Tetrazol-5-Ylmethyl)-2,3-Dihydro-1H-Indole-2-Carboxamide]	
1000 to 10000 nM	O=C(O)CCC(=O)N[C@H](C(=O)NCC(=O)N1c2ccccc2C[C@H]1C(=O)NCc1nn[nH]n1)c1ccsc1 [Example C23, 3-{[(S)-({2-Oxo-2-[(2S)-2-[(2H-1,2,3,4-Tetrazol-5-Ylmethyl)Carbamoyl]-2,3-Dihydro-1H-Indol-1-Yl]Ethyl}Carbamoyl)(Thiophen-3-Yl)Methyl]Carbamoyl}Propanoic Acid]	
1000 to 10000 nM	CC[C@H](C)[C@H](NC(=O)Cc1ccccc1)C(=O)N[C@H](CC(=O)O)C(=O)N1c2ccccc2C[C@H]1C(=O)NCc1nn[nH]n1 [Example C15, (3R)-3-[(2S,3S)-3-Methyl-2-(2-Phenylacetamido)Pentanamido]-4-Oxo-4-[(2S)-2-[(2H-1,2,3,4-Tetrazol-5-Ylmethyl)Carbamoyl]-2,3-Dihydro-1H-Indol-1-Yl]Butanoic Acid]	
> 10000 nM	CC[C@H](C)[C@H](NC(=O)Cc1ccccc1)C(=O)NCC(=O)N1c2ccc(NC(C)(C)C)cc2C[C@H]1C(=O)NCc1nn[nH]n1 [Example C33, (2S)-5-(Tert-Butylamino)-1-{2-[(2S,3S)-3-Methyl-2-(2-Phenylacetamido)Pentanamido]Acetyl}-N-(2H-1,2,3,4-Tetrazol-5-Ylmethyl)-2,3-Dihydro-1H-Indole-2-Carboxamide]	
< 100 nM	CC[C@H](C)[C@H](NC(=O)[C@@H](O)[C@H](O)C(=O)O)C(=O)NCC(=O)N1c2ccccc2C[C@H]1C(=O)NCc1nn[nH]n1 [Example A33, (2S,3S)-2,3-Dihydroxy-3-{[(1S,2S)-2-Methyl-1-({2-Oxo-2-[(2S)-2-[(2H-1,2,3,4-Tetrazol-5-Ylmethyl)Carbamoyl]-2,3-Dihydro-1H-Indol-1-Yl]Ethyl}Carbamoyl)Butyl]Carbamoyl}Propanoic Acid]	
1000 to 10000 nM	CC[C@@H](C)[C@H](NC(=O)Cc1ccccc1)C(=O)NCC(=O)N1c2ccccc2C[C@H]1C(=O)NCc1nn[nH]n1 [Example A42, (2S)-1-{2-[(2S,3R)-3-Methyl-2-(2-Phenylacetamido)Pentanamido]Acetyl}-N-(2H-1,2,3,4-Tetrazol-5-Ylmethyl)-2,3-Dihydro-1H-Indole-2-Carboxamide]	
	CC[C@H](C)[C@H](NC(=O)[C@H](N)CC(=O)O)C(=O)NCC(=O)N1c2ccccc2C[C@H]1C(=O)NCc1nn[nH]n1 [Example A38, (3R)-3-Amino-3-{[(1S,2S)-2-Methyl-1-({2-Oxo-2-[(2S)-2-[(2H-1,2,3,4-Tetrazol-5-Ylmethyl)Carbamoyl]-2,3-Dihydro-1H-Indol-1-Yl]Ethyl}Carbamoyl)Butyl]Carbamoyl}Propanoic Acid]	100 to 1000 nM
100 to 1000 nM	CC[C@H](C)[C@H](NC(=O)[C@@H](C)c1ccccc1)C(=O)NCC(=O)N1c2ccccc2C[C@H]1C(=O)NCc1nn[nH]n1 [Example A50, (2S)-1-{2-[(2S,3S)-3-Methyl-2-[(2S)-2-Phenylpropanamido]Pentanamido]Acetyl}-N-(2H-1,2,3,4-Tetrazol-5-Ylmethyl)-2,3-Dihydro-1H-Indole-2-Carboxamide]	
> 10000 nM	C[C@@H](O)[C@H](NC(=O)Cc1ccccc1)C(=O)NCC(=O)N1c2ccccc2C[C@H]1C(=O)NCc1nn[nH]n1 [Example C2, (2S)-1-{2-[(2S,3R)-3-Hydroxy-2-(2-Phenylacetamido)Butanamido]Acetyl}-N-(2H-1,2,3,4-Tetrazol-5-Ylmethyl)-2,3-Dihydro-1H-Indole-2-Carboxamide]	
100 to 1000 nM	CC[C@H](C)[C@H](NC(=O)C[C@@H](N)C(=O)O)C(=O)NCC(=O)N1c2ccccc2C[C@H]1C(=O)NCc1nn[nH]n1 [Example A40, (2R)-2-Amino-3-{[(1S,2S)-2-Methyl-1-({2-Oxo-2-[(2S)-2-[(2H-1,2,3,4-Tetrazol-5-Ylmethyl)Carbamoyl]-2,3-Dihydro-1H-Indol-1-Yl]Ethyl}Carbamoyl)Butyl]Carbamoyl}Propanoic Acid]	
> 10000 nM	C[C@H](O)[C@H](NC(=O)Cc1ccccc1)C(=O)NCC(=O)N1c2ccccc2C[C@H]1C(=O)NCc1nn[nH]n1 [Example C3, (2S)-1-{2-[(2S,3S)-3-Hydroxy-2-(2-Phenylacetamido)Butanamido]Acetyl}-N-(2H-1,2,3,4-Tetrazol-5-Ylmethyl)-2,3-Dihydro-1H-Indole-2-Carboxamide]	
100 to 1000 nM	CC[C@H](C)[C@H](NC(=O)Cc1ccccc1)C(=O)N[C@H](CCC(=O)O)C(=O)N1c2ccccc2C[C@H]1C(=O)NCc1nn[nH]n1 [Example C16, (4R)-4-[(2S,3S)-3-Methyl-2-(2-Phenylacetamido)Pentanamido]-5-Oxo-5-[(2S)-2-[(2H-1,2,3,4-Tetrazol-5-Ylmethyl)Carbamoyl]-2,3-Dihydro-1H-Indol-1-Yl]Pentanoic Acid]	
< 100 nM	CC[C@H](C)[C@H](NC(=O)CC(C)CC(=O)O)C(=O)NCC(=O)N1c2ccccc2C[C@H]1C(=O)NCc1nn[nH]n1 (stereo partly drawn) [Example A17, 3-Methyl-4-{[(1S,2S)-2-Methyl-1-({2-Oxo-2-[(2S)-2-[(2H-1,2,3,4-Tetrazol-5-Ylmethyl)Carbamoyl]-2,3-Dihydro-1H-Indol-1-Yl]Ethyl}Carbamoyl)Butyl]Carbamoyl}Butanoic Acid]	

Compound	IC50 [1]	IC50
CC(C)(C)OC[C@H](NC(=O)Cc1ccccc1)C(=O)NCC(=O)N1c2ccccc2C[C@H]1C(=O)NCc1nn[nH]n1 [Example C8, (2S)-1-{2-[(2S)-3-(Tert-Butoxy)-2-(2-Phenylacetamido)Propanamido]Acetyl}-N-(2H-1,2,3,4-Tetrazol-5-Ylmethyl)-2,3-Dihydro-1H-Indole-2-Carboxamide]	> 10000 nM	
